The results in this text go back to ChEMBL document CHEMBL6177965, “Sealgamide: An Antitrypanosomal Lipopeptide Isolated from a Marine Okeania sp. Cyanobacterium” (J Nat Prod, 2025).

Experiment [1] relates to Trypanosoma brucei rhodesiense. The experiment is described as follows: Antitrypanosomal activity against Trypanosoma brucei rhodesiense IL-1501 incubated for 69 hrs by Alamar blue staining based analysis. The class given is functional, organism-based. To be noted: IL-1501, 69 h. On the technique in general: The colour change of resazurin is a common sign of viable cells or microbes.

Experiment [2] relates to Plasmodium falciparum. The experiment is described as follows: Antimalarial activity against Plasmodium falciparum 3D7 infected in RBC incubated for 72 hrs by LDH assay. The class given is functional, organism-based. To be noted: 3D7, Erythrocyte.
Experiment [3] relates to HeLa. The experiment is described as follows: Cytotoxicity against human HeLa cells assessed as inhibition of cell growth incubated for 72 hrs by MTT assay. Type of experiment: functional, cell-based. A general note: Tetrazolium assays rely on reduction of a dye to a coloured formazan, in cell work by metabolically active cells.

Molecules are shown by their SMILES.

For orientation: IC50 means the concentration that inhibits the measured activity by half.

`CCC[C@@H](C[C@@H](CC(=O)N(C)[C@@H](C(=O)N(C)[C@H](C)C(=O)N[C@H](CC(C)C)C(=O)N(C)[C@@H](CC(C)C)C(=O)N[C@H](C(=O)N(C)[C@H](C(=O)N(C)[C@@H](CCC(N)=O)C(=O)N[C@@H](Cc1ccccc1)C(=O)N(C)[C@@H](CCC(N)=O)C(=O)N(C)[C@@H](Cc1ccc(OC)cc1)C(=O)OC)C(C)C)[C@@H](C)O)[C@@H](C)CC)OC)OC`: the IC50 in experiment [1] is 650 nM; in experiment [2], 2100 nM; in experiment [3], greater than 30000 nM.
With `N=C(N)c1ccc(OCCCCCOc2ccc(C(=N)N)cc2)cc1` [PENTAMIDINE], the IC50 in experiment [1] turned out to be 9 nM.
Consider `CCC[C@@H](C[C@@H](CC(=O)N(C)[C@@H](C(=O)N[C@H](C)C(=O)N[C@H](CC(C)C)C(=O)N(C)[C@@H](CC(C)C)C(=O)N[C@H](C(=O)N(C)[C@H](C(=O)N(C)[C@@H](CCC(N)=O)C(=O)N[C@@H](Cc1ccccc1)C(=O)N(C)[C@@H](CCC(N)=O)C(=O)N(C)[C@@H](Cc1ccc(OC)cc1)C(=O)O)C(C)C)[C@@H](C)O)[C@@H](C)CC)OC)OC`, for which the IC50 in experiment [1] was 2900 nM; in experiment [2], greater than 25000 nM; in experiment [3], greater than 30000 nM.
